{"source": "patent US20230270139A1", "about": "“COMPOSITIONS TO PROMOTE SWALLOWING SAFETY AND EFFICIENCY” (SOCIETE DES PRODUITS NESTLE S.A., priority 2020, published 2023)", "target": "TRPA1 (Homo sapiens, UniProt O75762)", "sequence (O75762 whole entry, species assumed)": "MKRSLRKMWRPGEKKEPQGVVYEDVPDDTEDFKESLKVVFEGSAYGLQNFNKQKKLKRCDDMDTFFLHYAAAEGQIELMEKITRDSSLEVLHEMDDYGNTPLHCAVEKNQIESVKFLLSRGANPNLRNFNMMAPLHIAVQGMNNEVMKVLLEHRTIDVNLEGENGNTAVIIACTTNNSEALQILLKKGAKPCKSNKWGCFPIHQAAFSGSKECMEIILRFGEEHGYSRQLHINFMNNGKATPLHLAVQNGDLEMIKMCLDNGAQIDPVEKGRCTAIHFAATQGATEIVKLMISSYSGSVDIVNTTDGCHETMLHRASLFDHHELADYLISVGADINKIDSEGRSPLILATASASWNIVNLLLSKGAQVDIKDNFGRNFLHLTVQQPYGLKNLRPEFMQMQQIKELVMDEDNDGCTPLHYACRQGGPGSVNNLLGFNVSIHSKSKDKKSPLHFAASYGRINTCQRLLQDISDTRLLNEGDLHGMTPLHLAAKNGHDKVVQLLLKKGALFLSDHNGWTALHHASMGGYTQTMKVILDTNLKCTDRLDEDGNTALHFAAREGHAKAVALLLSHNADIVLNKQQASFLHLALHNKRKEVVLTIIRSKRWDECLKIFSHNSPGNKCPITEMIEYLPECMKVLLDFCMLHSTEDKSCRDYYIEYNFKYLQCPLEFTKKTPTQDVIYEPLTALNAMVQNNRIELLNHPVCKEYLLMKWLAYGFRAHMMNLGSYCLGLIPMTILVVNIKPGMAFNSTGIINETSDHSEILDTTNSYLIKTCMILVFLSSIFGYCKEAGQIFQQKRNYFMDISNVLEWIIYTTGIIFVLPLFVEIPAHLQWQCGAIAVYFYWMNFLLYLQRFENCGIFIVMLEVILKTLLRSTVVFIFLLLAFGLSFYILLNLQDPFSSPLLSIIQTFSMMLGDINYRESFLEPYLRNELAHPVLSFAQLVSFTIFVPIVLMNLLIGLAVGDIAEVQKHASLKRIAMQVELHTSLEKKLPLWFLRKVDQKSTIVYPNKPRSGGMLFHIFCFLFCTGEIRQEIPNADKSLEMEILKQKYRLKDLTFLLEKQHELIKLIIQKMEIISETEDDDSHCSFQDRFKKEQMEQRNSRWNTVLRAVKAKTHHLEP", "assay": "Synergy of cinnamaldehyde and zinc on pharmacological activity of TRPA1, in vitro", "text": "The trigeminal ingredient may comprise cinnamaldehyde and zinc. The combination provides a minimal flavor impact and is effective to promote a swallowing reflex. Cinnamaldehyde and zinc have a synergy on the pharmacological activity of TRPA1. Using this synergy, the effective amount of cinnamaldehyde can be decreased by supplementing the cinnamaldehyde with small amount of zinc. Consequently, the combination of cinnamaldehyde and zinc can promote a swallowing reflex at concentrations in food that are tolerable both in flavor/taste and in the gastrointestinal tract. Moreover, the synergy only requires a low concentration of zinc (in vitro<1 μM).", "data": [{"smiles": "[Zn]", "note": "[zinc]", "values": [{"measurement": "zinc concentration required for synergy with cinnamaldehyde", "value": "< 1", "unit": "µM"}]}]}
